Assay results published in ChEMBL document CHEMBL3885881, “DrugMatrix”.

Species: Rattus norvegicus
Assay: DrugMatrix - Regimen: Daily Repeat
Assay type: toxicity, organism-based, Sprague-Dawley
Design: regimen Daily Repeat, gender Male, age 6-8 weeks
Conditions: in vivo, po, route oral GAVAGE, vehicle 100 % WATER
[1] = 0 mg/kg, 72 h, tissue Blood, dose level Control, time 3 day
[2] = 0 mg/kg, 72 h, tissue Plasma, dose level Control, time 3 day
[3] = 0 mg/kg, 120 h, tissue Blood, dose level Control, time 5 day
[4] = 0 mg/kg, 120 h, tissue Plasma, dose level Control, time 5 day
[5] = 24 mg/kg, 72 h, tissue Blood, dose level Low, time 3 day
[6] = 24 mg/kg, 72 h, tissue Plasma, dose level Low, time 3 day
[7] = 24 mg/kg, 120 h, tissue Blood, dose level Low, time 5 day
[8] = 24 mg/kg, 120 h, tissue Plasma, dose level Low, time 5 day

COLISTIN
BASOPHIL [1]: 0% | EOSINOPHIL [1]: 0.5% | ERYTHROCYTE COUNT [1]: 5.8 x10E6/uL | HEMATOCRIT [1]: 35.07% | LEUKOCYTE COUNT [1]: 13.7 x10E3/uL | MEAN CORPUSCULAR HEMOGLOBIN [1]: 24.38 pg | MEAN CORPUSCULAR HEMOGLOBIN CONCENTRATION [1]: 40.28 G/DL | MONOCYTE [1]: 2.67% | NEUTROPHIL [1]: 14.5% | PLATELET COUNT [1]: 911.5 x10E3/uL | ALANINE AMINOTRANSFERASE [2]: 36.83 u/L | ALKALINE PHOSPHATASE [2]: 399.83 u/L | ASPARTATE AMINOTRANSFERASE [2]: 66 u/L | BLOOD UREA NITROGEN [2]: 14.67 mg/dL | CHOLESTEROL [2]: 66.33 mg/dL | CREATINE PHOSPHOKINASE [2]: 139.5 u/L | CREATININE [2]: 0.92 mg/dL | GLUCOSE [2]: 175 mg/dL | PHOSPHORUS [2]: 11.42 mg/dL | TOTAL BILIRUBIN [2]: 1.13 mg/dL | TOTAL PROTEIN [2]: 6.87 G/DL | BASOPHIL [3]: 0% | EOSINOPHIL [3]: 0.2% | ERYTHROCYTE COUNT [3]: 6.02 x10E6/uL | LEUKOCYTE COUNT [3]: 12.34 x10E3/uL | LYMPHOCYTE [3]: 83% | MEAN CORPUSCULAR HEMOGLOBIN [3]: 23.92 pg | MEAN CORPUSCULAR VOLUME [3]: 60.66 fL | MONOCYTE [3]: 3% | NEUTROPHIL [3]: 13.8% | PLATELET COUNT [3]: 1190.6 x10E3/uL | ALANINE AMINOTRANSFERASE [4]: 43 u/L | ALKALINE PHOSPHATASE [4]: 393 u/L | ASPARTATE AMINOTRANSFERASE [4]: 62.33 u/L | CHOLESTEROL [4]: 65.5 mg/dL | CREATINE PHOSPHOKINASE [4]: 130.67 u/L | CREATININE [4]: 0.58 mg/dL | GLUCOSE [4]: 180.67 mg/dL | PHOSPHORUS [4]: 11.28 mg/dL | POTASSIUM [4]: 7.05 MEQ/L | TOTAL BILIRUBIN [4]: 0.72 mg/dL | TOTAL PROTEIN [4]: 6.83 G/DL | BASOPHIL [5]: 0% | EOSINOPHIL [5]: 0% | ERYTHROCYTE COUNT [5]: 5.85 x10E6/uL | LEUKOCYTE COUNT [5]: 13.3 x10E3/uL | LYMPHOCYTE [5]: 81.67% | MEAN CORPUSCULAR HEMOGLOBIN [5]: 24.6 pg | MEAN CORPUSCULAR HEMOGLOBIN CONCENTRATION [5]: 40.7 G/DL | MEAN CORPUSCULAR VOLUME [5]: 60.33 fL | MONOCYTE [5]: 2.67% | NEUTROPHIL [5]: 15.67% | PLATELET COUNT [5]: 839 x10E3/uL | ALANINE AMINOTRANSFERASE [6]: 41.67 u/L | ALBUMIN [6]: 3.7 G/DL | ALKALINE PHOSPHATASE [6]: 316 u/L | ASPARTATE AMINOTRANSFERASE [6]: 67 u/L | BLOOD UREA NITROGEN [6]: 14.33 mg/dL | CREATININE [6]: 0.77 mg/dL | GLUCOSE [6]: 176.33 mg/dL | PHOSPHORUS [6]: 11.3 mg/dL | POTASSIUM [6]: 6.83 MEQ/L | SODIUM [6]: 150 MEQ/L | TOTAL BILIRUBIN [6]: 0.87 mg/dL | TOTAL PROTEIN [6]: 6.77 G/DL | BASOPHIL [7]: 0% | EOSINOPHIL [7]: 0.33% | ERYTHROCYTE COUNT [7]: 6.34 x10E6/uL | HEMATOCRIT [7]: 37.4% | HEMOGLOBIN [7]: 14.6 G/DL | LEUKOCYTE COUNT [7]: 11.93 x10E3/uL | LYMPHOCYTE [7]: 83% | MEAN CORPUSCULAR HEMOGLOBIN [7]: 23 pg | MEAN CORPUSCULAR HEMOGLOBIN CONCENTRATION [7]: 39.03 G/DL | MEAN CORPUSCULAR VOLUME [7]: 58.97 fL | NEUTROPHIL [7]: 14.33% | PLATELET COUNT [7]: 1027.67 x10E3/uL | ALANINE AMINOTRANSFERASE [8]: 42.67 u/L | ALKALINE PHOSPHATASE [8]: 411.33 u/L | ASPARTATE AMINOTRANSFERASE [8]: 68.33 u/L | BLOOD UREA NITROGEN [8]: 15.67 mg/dL | CHOLESTEROL [8]: 64.33 mg/dL | CREATINE PHOSPHOKINASE [8]: 121.67 u/L | CREATININE [8]: 0.63 mg/dL | PHOSPHORUS [8]: 10.87 mg/dL | POTASSIUM [8]: 6.6 MEQ/L | SODIUM [8]: 149.67 MEQ/L | TOTAL BILIRUBIN [8]: 0.73 mg/dL | TOTAL PROTEIN [8]: 6.7 G/DL
